From patent publication US20220339100A1, “THERMOSENSITIVE MODIFIED CHITIN HYDROGEL LOCAL ANESTHETIC-LOADED SUSTAINED-RELEASE ANALGESIA SYSTEM, PREPARATION METHOD AND USE” (Wuhan University, priority 2021, published 2022)
Where a name gives a salt, the structure may show the parent alone.

Columns and labels:
[1] = in-vitro cumulative drug release in PBS (dialysis bag, UV 263 nm); assay type: physicochemical; settings: within 6 hours, 37° C., 100 rpm, same drug content as 2.0% system
Experimental: 1 ml of the above dispersion (suspension) was sucked with a precision syringe at 4° C. and put into a dialysis bag (molecular weight cut off: 8000-14000 Da), then the dialysis bag was put into a centrifuge tube which was equipped with 30 ml of PBS solution and placed in a 37° C. constant-temperature water-bath shaker that was vibrated at 100 rpm, samples were taken at different time. 2 ml of PBS solution was taken every time to be used as a sample supplemented with 2 mL of fresh PBS solution, the taken sample was analyzed by ultraviolet-visible spectrophotometry, the PBS solution was used as blank control, and a wavelength was detected as 263 nm. According to a standard curve of ropivacaine, the drug concentration of ropivacaine was calculated and a cumulative release curve was plotted. Three samples in each group were set for repetition. FIG. 1 is an in-vitro cumulative release curve of 2.0% R-HPCH-HA hydrogel sustained-release system represented by a 2.0% ropivacaine hydrochloride-loaded, wherein pure drugs (R) with the same drug content and an HPCH carrier (no hyaluronic acid, R-HPCH group) alone with the same drug content are used as control group. […] Thus, the injectable hydrogel drug delivery system comprising auxiliary component hyaluronic acid is benefit to the long-lasting local analgesia.

[2] = tested on: human neuroblastoma cell lines (SH-SY5Y); assay type: cell-based; settings: 24 h, 5 mM
Experimental: An in-vitro cytotoxicity test was performed on a ropivacaine-containing drug-loaded sustained-release system by using neuroblastoma cell line (SH-SY5Y) cells. Ropivacaine hydrochloride was dissolved into a PBS buffer to prepare a 10 mM ropivacaine solution, and the ropivacaine solution was diluted with a cell culture medium to prepare a cell culture medium with a concentration gradient of 0.5-5 mM in ropivacaine group; cell culture medium solutions containing HPCH2% and HA0.5% as well as a ropivacaine concentration of 10 mM were prepared at a low temperature and gelled at 37° C., and then a cell culture medium containing corresponding gel sustained-release systems and a ropivacaine concentration of 10 mM was prepared. SH-SY5Y cells were inoculated in a 96 well plate at a 10^4/mL cell density and normally cultured in a constant-temperature incubator for 24 h. Then, the above cell culture mediums containing pure drugs and drug gels were respectively added to be cultured for 24 h. The relative living cell numbers were tested by a Cell Counting Kit 8 (CCK-8) assay (FIG. 2).

sciatic nerve of SD rats = test: ultrasound-guided sciatic nerve block model, sensory block by hot plate method; assay type: in vivo, rat; settings: 0.5 mL around sciatic nerve
Experimental: In order to evaluate the in-vivo analgesic effect of the drug-loaded sustained-release system, an ultrasound-guided sciatic nerve block model was used. Various sustained-release injection formulations containing ropivacaine were injected around the sciatic nerve of the right hind limb of SD rats under the guidance of ultrasound, and the nerve blocking effect was observed. The rats were anesthetized with 2% isoflurane and placed in a prone position. […] Then, the sensory and motor block of the right hind limbs of the rats were evaluated by a hot plate method and motor block 4-point method, respectively. […]
Operation with hot plate method: the rats were placed on a preheated metal surface (55±0.5° C.), which was surrounded by a cylindrical Plexiglas wall (20 cm high and 28 cm in diameter) to limit the movement of the rats. […] This time was recorded as the basic thermal latency (baseline) time of rats (tested 2 days before the beginning of the experiment), which was generally about 3-5 s, and the rats with too short or too long baseline time were excluded. In order to prevent tissue injury, if the rats still have no pain response after 20 s, the rats were taken out and the time was recorded as 20 s. […] The test data were expressed as percentage of maximum possible effect (MPE %) with the calculation formula as follows: […]

cumulative release rate of ropivacaine [1]: exceeds 80%
SMILES: CCCN1CCCC[C@H]1C(=O)Nc1c(C)cccc1C [ropivacaine, ropivacaine hydrochloride]
cell viability [2]: 37.2% | time after which MPE value came back to the normal baseline (sciatic nerve of SD rats): 6 h
